Our source for the inhibition values is patent US20100210649A1, “PYRIDAZINONES AND FURAN-CONTAINING COMPOUNDS” (Sloan-Kettering Institute for Cancer Research, priority 2006, published 2010).

Molecules are shown by their SMILES. Like-named read-outs stand apart in the source and are kept apart here.

Type in all cases: cell-based, human
For one assay, the system named is H1650. In words: Non Small Cell Lung Cancer proliferation assay (Alamar Blue reduction), H1650. To be noted: Homo sapiens, NCI-H1650, primary screening, 10 μM compound in 1% DMSO (v/v). Here is the method: (§1) These cells have a doubling time of 1-2 days. All cell types are adherent and grow in colonies. The cells should be kept at a density between 50,000 cells/mL -500,000 cells/mL to provide for optimum growth and adequate nutrition. The cell line should be maintained at 37° C. in a humidified atmosphere with 5% CO2 in a sterile cell culture incubator.
(§2) Non Small Cell Lung Cancer Proliferation Assay.
(§3) High Controls for this assay are made by treating Non Small Cell Lung Cancer cells with 5 ul of 10% DMSO. [Final concentration in this assay is 1% DMSO].
(§4) Important Note: All compounds for testing in this assay should be done at the final concentration of 1% DMSO.
(§5) After addition, the cells are placed in cell culture incubator at 37° C. for 48 hours for complete treatment.
(§6) After drug treatment, cytotoxicity is measured by Alamar Blue reduction.
(§7) The cells are incubated for 48 hours at 37° C. to complete the Alamar Blue reduction.
(§8) The final step in the assay is to measure the amount of Alamar Blue reduction. […] The Alamar Blue fluorescence is measured at an excitation of 530 nm and emission of 590 nm.
(§9) For the NSCLC project, the cell based assay was screened against a small molecule library of approximately 200,000 compounds. The compound library is stored in our automated robotic freezer (Biophile) at −20° C. in 100% DMSO. Compound freeze and thaw cycles are kept to a minimum. […] This assay was performed on a fully automated linear track robotic platform (CRS F3 Robot System, Thermo Electron Corp., Ontario, Canada) utilizing several integrated peripherals for plate handling, liquid dispensing, and readout detection. […] The microplates are then placed at 37° C. for 48 hours to complete treatment of cells with compounds. Next, 5 ul of alamar blue was added using a liquid dispenser (Flexprop Precision Dispenser, Perkin Elmer, Mass., USA) and incubated for 48 hours at 37° C. The alamar blue prompt fluorescence was measured on Victor V (Victor^3 V, Perkin Elmer, Mass., USA) and output data files were loaded into ORIS (Oncology Research Informatics System, MSKCC, NY, USA), a screening data acquisition and analysis platform.
(§10) The dose response studies were done with the following standard procedure. First, the cells were counted and dispensed at 250 cells/well into 384-well microplates with compound. The cells were incubated for 48 hours at 37 C to complete treatment, and then alamar blue was added for an additional 48 hours. Finally, alamar blue reduction was measured and the data was loaded into ORIS, our data screening acquisition platform.
For orientation: The colour change of resazurin is a common sign of viable cells or microbes.

For another assay, the system named is H2030. In words: Non Small Cell Lung Cancer proliferation assay (Alamar Blue reduction), H2030. Conditions: Homo sapiens, NCI-H2030, primary screening, 10 μM compound in 1% DMSO (v/v). Here is the method:
as §1, §2, §3, §4, §5, §6, §7, §8, §9, §10

The test system of a further assay is H3255. Kind of assay: Non Small Cell Lung Cancer proliferation assay (Alamar Blue reduction), H3255. To be noted: Homo sapiens, NCI-H3255, primary screening, 10 μM compound in 1% DMSO (v/v). Here is the method:
as §1, §2, §3, §4, §5, §6, §7, §8, §9, §10

The next assay relates to H1975. In words: Non Small Cell Lung Cancer proliferation assay (Alamar Blue reduction), H1975. To be noted: Homo sapiens, NCI-H1975, primary screening, 10 μM compound in 1% DMSO (v/v). Here is the method: as §1, §2, §3, §4, §5, §6, §7, §8, §9, §10
The mark [1] stands for this setting: read-out: percentage inhibition H1650.
Setting [2] is: read-out: percentage inhibition H2030.
Where [3] appears, read: read-out: percentage inhibition H3255.
Setting [4] is: read-out: percentage inhibition H1975.
The mark [5] stands for this setting: H1650, read-out: PRIMARY HTS [%] H1650 (percentage inhibition).
[6] abbreviates: H2030, read-out: PRIMARY HTS [%] H2030 (percentage inhibition).
Setting [7] is: H3255, read-out: PRIMARY HTS [%] H3255 (percentage inhibition).
Setting [8] is: H1975, read-out: PRIMARY HTS [%] H1975 (percentage inhibition).

In the case of `CCOC(=O)COc1cnn(-c2ccccc2)c(=O)c1Cl` [compound 225042], the inhibition at 10 µM is -18% in the assay on H1650 (setting [1]), 6% in the assay on H2030 (setting [2]), 5% in the assay with H3255 (setting [3]) and 10% in the assay on H1975 (setting [4]).

In the case of `COc1cnn(-c2ccccc2)c(=O)c1Cl` [compound 104386], the inhibition at 10 µM with H1650 (setting [1]) was -12%; in the assay with H2030 (setting [2]) it was 6%; with H3255 (setting [3]) it was 0%; in the assay on H1975 (setting [4]), -11%.

Take `Cc1ccc(C(=O)N2CCN(c3ccc(NC(=O)c4ccco4)cc3)CC2)cc1` [compound 95436]: the inhibition at 10 µM in the assay with H1650 (setting [5]) is 2%; in the assay on H2030 (setting [6]) it was 2%; in the assay with H3255 (setting [7]) it was -3%; with H1975 (setting [8]), -12%.

As to `O=c1c(Cl)c(Cl)cnn1-c1ccc([N+](=O)[O-])cc1` [compound 103529], the inhibition at 10 µM in the assay with H1650 (setting [1]) was -13%; in the assay on H2030 (setting [2]) it was 15%; in the assay on H3255 (setting [3]), 1%; with H1975 (setting [4]), 97%.

For `Cc1ccc(C(=O)Nc2ccc(NC(=O)c3ccco3)cc2)c(C)c1` [compound 97216], the inhibition at 10 µM in the assay with H1650 (setting [5]) was -1%; with H2030 (setting [6]), -4%; in the assay with H3255 (setting [7]), 3%; in the assay with H1975 (setting [8]), -4%.

For `O=c1c(Cl)c(Cl)cnn1-c1ccc(Cl)cc1` [compound 104004], the inhibition at 10 µM amounted to 1% in the assay with H1650 (setting [1]), 75% with H2030 (setting [2]), 90% in the assay on H3255 (setting [3]) and 98% with H1975 (setting [4]).

For the compound `Cc1c(C(=O)NN)nn(-c2ccccc2)c(=O)c1C#N` [compound 194841], the inhibition at 10 µM in the assay with H1650 (setting [1]) is -1%; in the assay on H2030 (setting [2]), -9%; in the assay on H3255 (setting [3]), -35%; in the assay on H1975 (setting [4]), -15%.

Consider `CCOC(=O)NCCOc1cnn(-c2ccc(Cl)cc2)c(=O)c1Cl` [compound 199764], for which the inhibition at 10 µM was -11% with H1650 (setting [1]), -9% in the assay with H2030 (setting [2]), 2% in the assay with H3255 (setting [3]) and -14% in the assay on H1975 (setting [4]).

With `Cc1ccc([N+](=O)[O-])cc1NC(=O)c1ccco1` [compound 107911], the inhibition at 10 µM in the assay with H1650 (setting [5]) is 8%; with H2030 (setting [6]), 2%; with H3255 (setting [7]), 7%; in the assay on H1975 (setting [8]), -15%.

Regarding `NCCOc1cnn(-c2ccccc2Cl)c(=O)c1Cl` [compound 200052], the inhibition at 10 µM in the assay with H1650 (setting [1]) was -9%; in the assay on H2030 (setting [2]) it was 12%; with H3255 (setting [3]) it was -18%; in the assay with H1975 (setting [4]), 5%.

In the case of `O=c1c(Sc2ccccc2)c(Sc2ccccc2)cnn1-c1ccccc1` [compound 195070], the inhibition at 10 µM is 8% in the assay on H1650 (setting [1]), -7% in the assay with H2030 (setting [2]), -73% in the assay with H3255 (setting [3]) and 9% in the assay on H1975 (setting [4]).

Consider `Cc1cccc(-n2nc(C(=O)c3ccco3)cc(-c3nc4ccccc4[nH]3)c2=N)c1` [compound 181802], for which the inhibition at 10 µM in the assay on H1650 (setting [1]) was -2%; in the assay on H2030 (setting [2]) it was -5%; in the assay on H3255 (setting [3]), 27%; in the assay on H1975 (setting [4]) it was 14%.

As to `O=C(COc1cnn(-c2ccccc2)c(=O)c1Cl)c1ccc(Br)cc1` [compound 176702], the inhibition at 10 µM was 29% with H1650 (setting [1]), -14% in the assay with H2030 (setting [2]), -21% with H3255 (setting [3]) and 26% with H1975 (setting [4]).

For the compound `O=C(Nc1ccc(Cl)cc1F)c1ccco1` [compound 66598], the inhibition at 10 µM was determined as 8% with H1650 (setting [5]), 0% in the assay with H2030 (setting [6]), 1% with H3255 (setting [7]) and 8% with H1975 (setting [8]).

In the case of `COc1cnn(-c2ccccc2)c(=O)c1N(C)C` [compound 103971], the inhibition at 10 µM is 5% in the assay with H1650 (setting [1]), 1% in the assay with H2030 (setting [2]), -1% in the assay with H3255 (setting [3]) and -10% with H1975 (setting [4]).

For `O=c1ccc(Cl)nn1-c1ccccc1` [compound 195149], the inhibition at 10 µM in the assay on H1650 (setting [1]) was -4%; in the assay on H2030 (setting [2]), -5%; with H3255 (setting [3]), -19%; in the assay on H1975 (setting [4]), 11%.

As to `O=c1c(SCc2ccc(Cl)cc2Cl)c(SC2CCCCO2)cnn1-c1ccccc1` (centres unmarked) [compound 224771], the inhibition at 10 µM in the assay with H1650 (setting [1]) was -12%; with H2030 (setting [2]) it was 3%; in the assay on H3255 (setting [3]), 30%; with H1975 (setting [4]) it was -21%.

With `O=C(c1ccc([N+](=O)[O-])o1)N1CCOCC1` [compound 77953], the inhibition at 10 µM in the assay with H1650 (setting [5]) was 12%; in the assay on H2030 (setting [6]) it was -6%; in the assay with H3255 (setting [7]), 0%; with H1975 (setting [8]), -1%.

Regarding `O=C(Nc1ccc(N2CCN(C(=O)c3ccco3)CC2)cc1)c1ccco1` [compound 97253], the inhibition at 10 µM in the assay with H1650 (setting [5]) was -2%; in the assay with H2030 (setting [6]), -5%; in the assay with H3255 (setting [7]) it was -3%; in the assay on H1975 (setting [8]), -15%.

Turning to `COc1ccc(-n2nc(-n3cnc4ccccc43)c(C)c(C#N)c2=O)cc1` [compound 176963], the inhibition at 10 µM in the assay with H1650 (setting [1]) was 11%; in the assay with H2030 (setting [2]), 4%; in the assay with H3255 (setting [3]), 17%; with H1975 (setting [4]), -5%.

For the compound `CCc1ccccc1NC(=O)c1ccc([N+](=O)[O-])o1` [compound 103960], the inhibition at 10 µM in the assay on H1650 (setting [5]) is 62%; in the assay with H2030 (setting [6]), 73%; in the assay on H3255 (setting [7]), 68%; with H1975 (setting [8]), 41%.

Turning to `CSc1c(SCc2ccccc2)cnn(-c2ccccc2)c1=O` [compound 182831], the inhibition at 10 µM was -4% in the assay with H1650 (setting [1]), -12% in the assay on H2030 (setting [2]), -18% in the assay on H3255 (setting [3]) and 5% in the assay with H1975 (setting [4]).

Take `O=c1c(Cl)c(Cl)c(O)nn1-c1ccccc1` [compound 103751]: the inhibition at 10 µM was 6% in the assay on H1650 (setting [1]), -4% with H2030 (setting [2]), 0% with H3255 (setting [3]) and -4% in the assay with H1975 (setting [4]).

As to `O=c1c(Cl)c(SC(c2ccccc2)c2ccccc2)cnn1-c1ccccc1` [compound 208697], the inhibition at 10 µM in the assay with H1650 (setting [1]) was -3%; with H2030 (setting [2]), 4%; in the assay with H3255 (setting [3]), 31%; in the assay on H1975 (setting [4]), -16%.

For `O=c1c(SCc2ccccc2)c(SCc2ccc(Cl)cc2)cnn1-c1ccccc1` [compound 208705], the inhibition at 10 µM in the assay with H1650 (setting [1]) is -4%; with H2030 (setting [2]) it was 10%; in the assay on H3255 (setting [3]), 0%; in the assay with H1975 (setting [4]), -20%.

On to `COc1cnn(-c2cccc(Cl)c2)c(=O)c1Cl` [compound 104390], for which the inhibition at 10 µM was 15% with H1650 (setting [1]), -6% in the assay on H2030 (setting [2]), 34% in the assay on H3255 (setting [3]) and 4% with H1975 (setting [4]).

`O=C(O)c1ccc(-n2ncc(Cl)c(Cl)c2=O)cc1` [compound 197940]: the inhibition at 10 µM in the assay on H1650 (setting [1]) was 11%; in the assay with H2030 (setting [2]), 2%; with H3255 (setting [3]), -37%; in the assay on H1975 (setting [4]), -6%.

As for `Cc1c(Oc2ccccc2)nnn1-c1cnn(-c2ccccc2)c(=O)c1Br` [compound 223337], the inhibition at 10 µM with H1650 (setting [1]) was 13%; in the assay with H2030 (setting [2]), -14%; in the assay with H3255 (setting [3]), 61%; with H1975 (setting [4]) it was 5%.

In the case of `O=C(Nc1cccc(Cl)c1)c1ccco1` [compound 78107], the inhibition at 10 µM in the assay with H1650 (setting [5]) was 14%; in the assay on H2030 (setting [6]), 4%; in the assay with H3255 (setting [7]) it was 6%; in the assay on H1975 (setting [8]) it was -14%.

As usually defined, the inhibition is the change of the read-out against control, counted positive when it falls.
